Assay results: patent publication US20200345761A1, “PREVENTIVE AND/OR THERAPEUTIC AGENT FOR DEMENTIA” (MITOS CO., LTD., priority 2017, published 2020)

Columns and labels:
Alzheimer-type dementia = conditions: cited from earlier work
[1] = tested on: Alzheimer-type dementia patients
Description: Patients were selected on the basis of the following three criteria.
(1) Deterioration in the score occurs such that the ADAS-cog score based on formula [70−(MMSE×2.33)] (J. Caro et al., BMC Neurol 2002; 2:6.) or the ADAS-cog score calculated in terms of MMSE (Mini-Mental State Examination) exceeds 10.
Finally, 11 patients were selected, and treated with H2 gas.
Since the probability of suffering complications increases as the concentration of lithium in blood increases, the dosage of lithium carbonate was reduced (W. S. Waring, Toxicol Rev 2006; 25:221-230.). The patients of the treatment group were given oral administration of a 200 mg tablet of lithium carbonate (Li2CO3) (Mitsubishi Tanabe Pharma Corporation) twice a day and inhalation of 3% H2 twice a day. The test period was 6 months. As the gas containing H2, H2 gas (3%) containing 21% oxygen was generated using a portable H2 generator (Nishijima/Ecore Gas Hydrogen Generator) (H. Ono et al., J Stroke Cerebrovasc Dis 2017; 26:2587-2594.). […] Since lithium carbonate is used as a therapeutic agent for depression and mania (bipolar disorder), and it was reported that patients who ingested lithium carbonate less likely developed dementia, lithium carbonate was used in this Example.
The patients were evaluated by a blind method using the ADAS-cog score.
The ADAS-cog test was conducted every 1 to 2 months. The efficacy of treatment with respect to the ADAS-cog score was determined by comparing the ADAS-cog score at the start of the test with two or three tests during treatment.

dementia patients = conditions: hydrogen gas about 3 to 4% inhaled 1 hour twice a day, 6-month treatment period, six patients
Description: Patients (outpatients in Iryohojin Shadanshinwakai Nishijima Byoin (Numazu-shi, Shizuoka)) in whom rapid deterioration (deterioration by 3 or more points over 1 year) in a cognitive function test such as MMSE or ADAS-cog occured although existing four agents for dementia were used over a long period of time, and improvement is not attained by other ordinary treatment methods.
Patients for whom it is considered difficult to repeatedly inhale hydrogen gas over a long period of time because of severe medical disease, chronic chest disease (chronic obstructive pulmonary disease (COPD), asthma or the like), mouth inflammation or the like.
Patients for whom it is determined from a score in the ADAS-cog cognitive function test that a therapeutic effect is achieved.

[2] = inhalation of H2 gas (3%) containing 21% oxygen; cited from earlier work
[3] = 11 patients including the unresponsive patient, at completion of H2 treatment

SMILES: COc1cc2c(cc1OC)C(=O)C(CC1CCN(Cc3ccccc3)CC1)C2 (centres unmarked) [Donepezil]
- ADAS-cog score of the administration group (Alzheimer-type dementia; after 6 months): turned back to the initial value
- Change of ADAS-cog score (Alzheimer-type dementia; after 6 weeks): −3 points

SMILES: [HH] [H2, hydrogen gas]
- Average change of ADAS-cog score with respect to the initial score [1, 3]: −3.4
- Average change of ADAS-cog score with respect to the worst score [1, 3]: −8.5
- Patients whose ADAS-cog score was improved (decreased) from that at the start time ([1]; at the end of the H2 treatment period, 11 patients): seven
- Worst score: B (ADAS-cog), average ([1]; average of 11 patients): 39.2
- Final score: C (ADAS-cog), average ([1]; average of 11 patients at completion of H2 treatment): 30.7
- Patients with improvement in the ADAS-cog score ([1]; combination therapy with H2 and lithium, Alzheimer-type dementia patients): 10 out of 11
- Therapeutic effect judged from ADAS-cog score (effective cases) (dementia patients): effective in all of the six patients
- Blood concentration [2]: confirmed to increase

SMILES: O=C([O-])[O-].[Li+].[Li+] [lithium, lithium carbonate, reference compound]
- Cognitive function (ADAS-cog) with lithium used alone ([1]; after H2 treatment was stopped, lithium alone): the cognitive function was not improved
